This note sets out measurements from patent US20260216180A1, “QUINOLINE DERIVATIVE COMPOUNDS OR PHARMACEUTICALLY ACCEPTABLE SALT THEREOF, PREPARATION METHOD THEREFOR AND USE THEREOF” (JIANGSU CAREPHAR PHARMACEUTICAL CO.,LTD., priority 2023, published 2026).

Holding throughout (assay type): cell-based
For experiment [1], the system named is IL-6. Briefly: Macrophage IL-6 secretion after LPS (ELISA). Conditions: Bone marrow macrophage, compared to 0 μM, mouse bone marrow macrophages, 200 ng/ml LPS, 6 hours, read-out: Inhibition rate of IL-6 at 10 μM concentration. The protocol: (§1) Pharmacological Activity Test: Regulatory Effect of Quinoline Derivatives on Macrophage IL-6 and TNF-α Secretion
(§2) Mouse bone marrow cells were isolated from the femur and tibia bone marrow of […] mice of 6-8 week old raised under SPF conditions and inoculated in 6-well plates at a density of 1.5*10^6 cells/well/2 mL. 50 ng/mL M-CSF was added to each well and the cells were cultured in a CO2 incubator for 3 days. On the third day, the culture medium was replaced with fresh medium containing 100 ng/mL M-CSF and the culture was continued for 3 days. On the 6th day, the supernatant was removed and the cells were washed once with DPBS. After adding 1 mL of DPBS, the macrophages were harvested using a cell scraper, centrifuged at 400 g for 10 min, and the supernatant was discarded. The cells were resuspended in fresh culture medium containing 50 ng/mL M-CSF, inoculated in a 96-well plate at a density of 2*10^4 cells/well/200 μL, and cultured in a CO2 incubator overnight. 0, 3, 5, […] of the test compound were added to each well (wherein well 0 contains 0.1% DMSO) respectively and incubate in a CO2 incubator for 1 hour. Then 200 ng/ml LPS was added and the cell supernatant was collected after 6 hours of co-culture. ELISA kits were used to detect the secretion levels of IL-6 and TNF-α.
In general terms: An ELISA detects its analyte on a solid surface through an enzyme-linked reagent.

Experiment [2] deals with miR-124. Briefly: Regulation of miR-124 expression in a PBMC in vitro model (qPCR). Conditions: 5 μM test compound, 24 h, human PBMC stimulated with PHA-L and IL-2; miR-191 internal reference; read-out: Relative expression of miR-124, fold change compared with DMSO-treated cells. The protocol:
Pharmacological Activity Test: Regulation of miR-124 Expression by the Quinoline Derivatives in a PBMC In Vitro Model
• a. human PBMC cells • b. PHA-L • c. IL-2 • d. mirVana™ miRNA Extraction kit • e. TaqMan Advanced miRNA cDNA Synthesis Kit • f. TaqMan Fast Gene Expression Master Mix • g. TaqMan Advanced miRNA Assay (mir191) • h. TaqMan Advanced miRNA Assay (mir124)
Human PBMC cells were resuscitated. The cell suspension was transferred to a 75 cm^2 culture flask containing 13 mL of culture medium. The cells were cultured overnight in a 37° C., 5% CO2 incubator. The cell suspension was then collected in a conical flask, centrifuged at 1200 rpm for 5 minutes, and the supernatant was discarded. The cells were resuspended in 1 mL of fresh culture medium, and then the cell clumps were gently blown apart and inoculated into a 6-well plate at a density of 4*10^6 cells/mL. 5 μg/mL PHA-L and 10 ng/mL IL-2 were added to each well. The cells were incubated in the incubator for 48 hours. 5 μM of the test compound was added to each well of a 6-well plate, and 0.1% DMSO was added to the blank control wells, and the plate was incubated at 37° C. for 24 h. Cells were collected, Total RNA was isolated and extracted according to the procedure of the mirVana™ miRNA Extraction Kit, and cDNA was prepared according to the procedure of the TaqMan Advanced miRNA cDNA Synthesis Kit. MiR-191 was used as the internal reference gene for qPCR test.
That is, RNA sample→poly (A) tailing reaction→adapter reaction→reverse transcription (RT) reaction→miR-amplification reaction→qPCR test.
The qPCR procedure includes: 50° C. 2 min; 95° C. 20 s; 95° C. 1 s, a 60° C. 20 s, 40 cycles.
The relative gene expression was calculated using the following formula: ΔCt=Ct (miR-124)−Ct (miR-191)
Relative miRNA expression=2^−ΔCt.

The test system of experiment [3] is TNF-α. Briefly: Macrophage TNF-α secretion after LPS (ELISA). The conditions noted are these: Bone marrow macrophage, compared to 0 μM, mouse bone marrow macrophages, 200 ng/ml LPS, 6 hours, read-out: Inhibition rate of TNFα at 10 μM concentration. The protocol:
as §1, §2

`FC(F)C1(c2ccc(Nc3ccc4cccc(Cl)c4n3)cc2)CC1` [Compound 1, 8-chloro-N-(4-(1-(difluoromethyl)cyclopropyl)phenyl)quinolin-2-amine]: the inhibition at 10 µM stood at 81% in experiment [1] and 85% in experiment [3]. For the same molecule, in experiment [2], the fold induction at 5 µM was 1.5.
For `FC(F)(F)C1(c2ccc(Nc3ccc4cccc(Cl)c4n3)nc2)CC1` [Compound 2, 8-chloro-N-(5-(1-(trifluoromethyl)cyclopropyl)pyridin-2-yl)quinolin-2-amine], the fold induction at 5 µM in experiment [2] was 8.35.
Still for that read-out and setting: to `CC(C)(c1ccc(Nc2ccc3cccc(Cl)c3n2)cc1)C(F)(F)F` [Compound 3, 8-chloro-N-(4-(1,1,1-trifluoro-2-methylprop-2-yl)phenyl)quinolin-2-amine] belongs 7.33.
Take `FC(F)(F)C1(c2ccc(Nc3ccc4cccc(Cl)c4n3)cc2)CC1` [Compound 4, 8-chloro-N-(4-(1-(trifluoromethyl)cyclopropyl)phenyl)quinolin-2-amine]: the inhibition at 10 µM worked out at 85% in experiment [1] and 84% in experiment [3]. Moreover, the fold induction at 5 µM in experiment [2] worked out at 15.9.
With `FC(F)(F)C1(c2ccnc(Nc3ccc4cccc(Cl)c4n3)c2)CC1` [Compound 6, 8-chloro-N-(4-(1-(trifluoromethyl)cyclopropyl)pyridin-2-yl)quinolin-2-amine], in experiment [2], the fold induction at 5 µM is 7.28.
As for `FC(F)(F)C1(c2ccc(Nc3ccc4cccc(Cl)c4n3)cn2)CC1` [Compound 7, 8-chloro-N-(6-(1-(trifluoromethyl)cyclopropyl)pyridine-3-yl)quinolin-2-amine], in experiment [2], the fold induction at 5 µM was 1.8.
`COc1cc(C2(C(F)(F)F)CC2)ccc1Nc1ccc2cccc(Cl)c2n1` [Compound 8, 8-chloro-N-(2-methoxy-4-(1-(trifluoromethyl)cyclopropyl)phenyl)quinolin-2-amine]: the fold induction at 5 µM in experiment [2] came out at 6.
Consider `FC(F)(F)C1(c2cccc(Nc3ccc4cccc(Cl)c4n3)c2)CC1` [Compound 9, 8-chloro-N-(3-(1-(trifluoromethyl)cyclopropyl)phenyl)quinolin-2-amine], for which, in experiment [2], the fold induction at 5 µM was found to be 4.24.
For the molecule `Fc1cc(Cl)c2nc(Nc3ccc(C4(C(F)(F)F)CC4)cn3)ccc2c1` [Compound 10, 8-chloro-6-fluoro-N-(5-(1-(trifluoromethyl)cyclopropyl)pyridin-2-yl)quinolin-2-amine], the fold induction at 5 µM in experiment [2] worked out at 6.9.
As for `Cc1cc(Nc2ccc3cccc(Cl)c3n2)ncc1C1(C(F)(F)F)CC1` [Compound 13, 8-chloro-N-(4-methyl-5-(1-(trifluoromethyl)cyclopropyl)pyridin-2-yl)quinolin-2-amine], in experiment [2], the fold induction at 5 µM was determined as 5.9.
Consider `FC(F)(F)C1(c2cnc(Nc3ccc4cccc(Cl)c4n3)cn2)CC1` [Compound 14, 8-chloro-N-(5-(1-(trifluoromethyl)cyclopropyl)Pyrazin-2-yl)quinolin-2-amine], for which the fold induction at 5 µM in experiment [2] was determined as 8.1.
Same read-out and setting: to `Fc1cc(Nc2ccc3cccc(Cl)c3n2)ncc1C1(C(F)(F)F)CC1` [Compound 15, 8-chloro-N-(4-fluoro-5-(1-(trifluoromethyl)cyclopropyl)pyridin-2-yl)quinolin-2-amine] belongs 1.99; to `Fc1cc(Cl)c2nc(Nc3cc(C4(C(F)(F)F)CC4)ccn3)ccc2c1` [Compound 17, 8-chloro-6-fluoro-N-(4-(1-(trifluoromethyl)cyclopropyl)pyridin-2-yl)quinolin-2-amine], 56.4; to `N#Cc1cc(Cl)c2nc(Nc3ccc(C4(C(F)(F)F)CC4)cn3)ccc2c1` [Compound 19, 8-chloro-2-((5-(1-(trifluoromethyl)cyclopropyl)pyridin-2-yl)amino)quinolin-6-nitrile], 118.
As to `N#Cc1cc(Cl)c2nc(Nc3ccc(C4(C(F)(F)F)CC4)cc3)ccc2c1` [Compound 20, 8-chloro-2-((4-(1-(trifluoromethyl)cyclopropyl)phenyl)amino)quinolin-6-carbonitrile], the fold induction at 5 µM in experiment [2] was determined as 15.2.
In the case of `CS(=O)(=O)c1cc(Cl)c2nc(Nc3ccc(C4(C(F)(F)F)CC4)cc3)ccc2c1` [Compound 21], in experiment [2], the fold induction at 5 µM came out at 21.2.
In the case of `CC(C)(c1ccc(Nc2ccc3cccc(Cl)c3n2)cc1)C(F)F` [Compound 22, 8-chloro-N-(4-(1,1-difluoro-2-methylpropan-2-yl)phenyl)quinolin-2-amine], the fold induction at 5 µM in experiment [2] was 1.96.
Regarding `FC(F)(F)C1(c2cnc(Nc3ccc4cccc(Cl)c4n3)nc2)CC1` [Compound 24, 8-chloro-N-(5-(1-(trifluoromethyl)cyclopropyl)pyrimidin-2-yl)quinolin-2-amine], in experiment [2], the fold induction at 5 µM was determined as 1.99.
